Laboratory results taken from US20240391923A1, “METHIONINE ADENOSYLTRANSFERASE 2A INHIBITOR FOR TREATING MTAP DELETION-TYPE CANCER” (SUZHOU GENHOUSE BIO CO., LTD., priority 2022, published 2024).
Read-outs that look alike come from different tables or passages of the source.

What was measured:
[1] = system: HCT116-MTAP-knockout (−/−) cell strain; experiment: Tumor cell proliferation inhibition assay (CellTiter-Glo), HCT116-MTAP-knockout (-/-); format: cell-based; details: Homo sapiens, 120 h, HCT116-MTAP−/− cells, 5-day treatment
Description: (§1) After the HCT116-MTAP-knockout (−/−) cell strain, the HCT116-MTAP wild-type(+/+)-cell strain, the DOHH-2 cell strain, or the Hut-78 cell strain was treated with the test compound for 5 days, the ATP level was measured using a CellTiter-Glo kit of Promega to evaluate the inhibition of the test compound against the growth of the tumor cell strain.
(§2) In the present application, the HCT116-MTAP-knockout (−/−) cell strain, the HCT116-MTAP wild-type (+/+)-cell strain, the DOHH-2 cell strain, or the Hut-78 cell strain was seeded into a 96-well cell culture plate at an appropriate cell density. After 24 h, the cells were treated using the test compounds diluted 1:3 fold at the highest concentration of 10 μM for 10 gradients, and a DMSO treatment group was set up separately. The cells were cultured in a 37° C./5% CO2 incubator for 5 days.

[2] = system: HCT116-MTAP wild-type (+/+)-cell strain; experiment: Tumor cell proliferation inhibition assay (CellTiter-Glo), HCT116-MTAP wild-type (+/+); format: cell-based; details: Homo sapiens, 120 h, HCT116-MTAP+/+ cells, 5-day treatment
Description: as §1, §2

[3] = biological target: MAT2A recombinant protein (Homo sapiens, UniProt P31153); experiment: MAT2A inhibitory activity (malachite green colorimetric enzyme assay); format: biochemical
Text: MAT2A catalyzes the reaction of L-methionine and ATP to generate S-adenosylmethionine (SAM), inorganic phosphonic acid, and inorganic diphosphonic acid. Malachite green reacts with inorganic phosphonic acid to generate a green product, and the enzyme activity of MAT2A can be indirectly reflected by detecting the content of the inorganic phosphonic acid in a sample.
The test compounds were formulated using DMSO and diluted 1:3 diluted through 10 concentration points to give a final starting concentration in the reaction system of 1000 nM. The test compounds at different concentrations described above were transferred to a 384-well plate. Experimental buffer (50 mM HEPES pH 7.5, 50 mM KCl, 10 mM MgCl2, 10 mM DTT) was prepared. 2×MAT2A recombinant protein was prepared using the buffer and added to a 384-well plate. A mixed solution of 2×L-methionine and ATP was prepared using the buffer, and added to a 384-well plate. The enzymatic reaction was started, and the reaction was carried out at room temperature for 60 min. 20 μL of a colorimetric detection reagent was added to the above system, and incubated at room temperature for 15 min. The absorbance at 630 nm was measured. The inhibition rate of the compound on the enzyme activity was calculated, and the inhibition rate value and the logarithm value of the compound concentration were fitted using non-linear regression (dose response-variable slope) to give the IC50 value of the test compound.

[4] = system: SDMA in human colon cancer cell line HCT116; experiment: Cell symmetric dimethylarginine (SDMA) test, In-cell Western, HCT116 (MTAP wild-type); format: cell-based; details: Homo sapiens, HCT-116, 96 h
Text: MAT2A catalyzes the reaction of L-methionine and ATP to generate SAM, inorganic phosphonic acid, and inorganic diphosphonic acid. SAM is an important methyl donor, and is a substrate of arginine methyltransferase 5 (PRMT5). PRMT5 catalyzes SDMA modification of multiple proteins within a cell. The intracellular SDMA modification level was detected by ICW (In-cell Western), and the inhibition of the test compound on the enzymatic activity of intracellular MAT2A was indirectly reflected.
In the present application, the human colon cancer cell line HCT116 and the corresponding HCT116-MTAP-knockout cell line were seeded into a 96-well cell culture plate at an appropriate cell density. After 24 h, the cells were treated using the test compounds diluted 1:4 fold at the highest concentration of 6 μM for 6 gradients, and a DMSO treatment group was set up separately. The cells were cultured in a 37° C./5% CO2 incubator for 4 days. To test the inhibitory activity of the test compounds against tumor cell SDMA, the medium was discarded, and the plate was washed 3 times with PBST. 4% paraformaldehyde was then used at room temperature for fixation for 20 min. The fixation solution was discarded, the plate was washed 3 times with PBST, and a special blocking solution was added to each well for blocking at room temperature for 2 h. The blocking solution was discarded. After the plate was washed 3 times with PBST, the plate was incubated with SDMA antibody at 4° C. overnight. The next day, the plate was washed 3 times with PBST. The secondary antibody and DRAQ5 were diluted to an appropriate concentration with the blocking solution, and incubated at room temperature for 2 h; the plate was washed 3 times with PBST, and the fluorescence signals at 700 nm and 800 nm were detected using a Li—COR Odyssey two-color near-infrared laser imager.
The data was then processed. After the corresponding background value was subtracted from each well, statistical analysis was performed on the 800 nm/700 nm ratio for each well, a sigmoidal dose-inhibition curve was plotted using a non-linear regression model, and IC50 values were fitted and calculated. Inhibition Rate (%)=(1−SDMA dose/SDMA DMSO control)*100. SDMA dose is the value of the drug treatment group, and SDMA DMSO control is the value of the DMSO control group.

[5] = system: SDMA in HCT116-MTAP-knockout cell line; experiment: Cell symmetric dimethylarginine (SDMA) test, In-cell Western, HCT116-MTAP-knockout; format: cell-based; details: Homo sapiens, 96 h
[6] = IC50 class score, read-out: Tumor cell 5-day relative growth inhibition (HCT116-MTAP−/−) (nM), score
[7] = read-out: Tumor cell 5-day relative growth inhibition (HCT116-MTAP−/−)
[8] = IC50 class score, read-out: Tumor cell 5-day relative growth inhibition (HCT116-MTAP+/+) (nM), score
[9] = read-out: Tumor cell 5-day relative growth inhibition (HCT116-MTAP+/+)
[10] = IC50 score class, read-out: MAT2A Inhibition (score)
[11] = IC50 score class, read-out: Cell 96 h SDMA Inhibition (HCT116-MTAP+/+) (score)
[12] = read-out: Cell 96 h SDMA inhibition (HCT116-MTAP+/+)
[13] = IC50 score class, read-out: Cell 96 h SDMA Inhibition (HCT116-MTAP−/−) (score)
[14] = read-out: Cell 96 h SDMA Inhibition (HCT116-MTAP−/−)

MAT2A recombinant protein, sequence (P31153 whole entry): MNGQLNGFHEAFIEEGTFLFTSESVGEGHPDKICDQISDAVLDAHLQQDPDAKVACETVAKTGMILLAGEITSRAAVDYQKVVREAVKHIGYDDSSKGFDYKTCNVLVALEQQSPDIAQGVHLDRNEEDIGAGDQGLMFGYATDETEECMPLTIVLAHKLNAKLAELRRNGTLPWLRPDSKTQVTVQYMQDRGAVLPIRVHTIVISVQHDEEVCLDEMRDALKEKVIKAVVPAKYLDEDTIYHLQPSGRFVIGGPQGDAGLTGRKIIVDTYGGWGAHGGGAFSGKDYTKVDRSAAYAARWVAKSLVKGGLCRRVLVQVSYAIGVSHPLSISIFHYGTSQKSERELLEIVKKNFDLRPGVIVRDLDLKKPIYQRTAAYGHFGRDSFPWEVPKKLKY

SMILES | IC50 [1, 6] [nM] | IC50 [1, 7] [nM] | IC50 [2, 8] [nM] | IC50 [2, 9] [nM] | IC50 [3, 10] [nM] | IC50 ([3]; read-out: MAT2A Inhibition) [nM] | IC50 [4, 11] [nM] | IC50 [4, 12] [nM] | IC50 [5, 13] [nM] | IC50 [5, 14] [nM]
Cn1cnc2c(=O)n(-c3ccc4ccccc4n3)c3nc(C(F)(F)F)ccc3c21 [Compound B402] | ≥ 2000 | > 10000 | ≥ 2000 | > 10000 | > 1000 | > 10000 | – | – | – | –
Cn1cnc2c(=O)n(-c3cnc4ccccc4c3)c3nc(C(F)(F)F)ccc3c21 [Compound B403] | ≥ 2000 | > 10000 | ≥ 2000 | > 10000 | > 1000 | > 10000 | – | – | – | –
Cn1cnc2c(=O)n(-c3ccc4ccccc4c3)c3nc(C(F)(F)F)ccc3c21 [Compound B404] | ≥ 2000 | > 10000 | ≥ 2000 | > 10000 | > 1000 | > 10000 | – | – | – | –
Cn1cnc2c(=O)n(-c3ccc4ncccc4n3)c3nc(C(F)(F)F)ccc3c21 [Compound B405] | ≥ 2000 | > 10000 | ≥ 2000 | > 10000 | > 1000 | > 10000 | – | – | – | –
Cn1cnc2c(=O)n(-c3cncc4ccccc34)c3nc(C(F)(F)F)ccc3c21 [Compound B406] | ≥ 2000 | > 10000 | ≥ 2000 | > 10000 | – | – | – | – | – | –
Cn1cnc2c(=O)n(-c3cccc4ccncc34)c3nc(C(F)(F)F)ccc3c21 [Compound B407] | ≥ 2000 | > 10000 | ≥ 2000 | > 10000 | – | – | – | – | – | –
Cn1cnc2c(=O)n(-c3cccc4ncccc34)c3nc(C(F)(F)F)ccc3c21 [Compound B408] | ≥ 2000 | > 10000 | ≥ 2000 | > 10000 | – | – | – | – | – | –
O=c1c2n[nH]cc2c2ccc(C(F)(F)F)nc2n1-c1ccccc1Cl [Compound B409] | 500 to 2000 | 1530 | ≥ 2000 | 4040 | – | – | – | – | – | –
Cn1ncc2c3ccc(C(F)(F)F)nc3n(-c3ccccc3Cl)c(=O)c21 [Compound B410] | ≥ 2000 | > 10000 | ≥ 2000 | > 10000 | > 1000 | > 10000 | – | – | – | –
Cn1cc2c(n1)c(=O)n(-c1cccc3[nH]nc(F)c13)c1cc(Cl)c(F)cc21 [Compound B411] | – | – | – | – | < 100 | 10 | > 3000 | > 10000 | < 200 | 5.2
Cn1cc2c(n1)c(=O)n(-c1cccc3[nH]nc(Cl)c13)c1cc(Cl)c(F)cc21 [Compound B412] | – | – | – | – | < 100 | 6.4 | > 3000 | > 10000 | < 200 | 5.8
Cn1cc2c(n1)c(=O)n(-c1cccc3[nH]nc(Br)c13)c1cc(Cl)c(F)cc21 [Compound B413] | – | – | – | – | < 100 | 7.4 | > 3000 | > 10000 | < 200 | 9.1
